Starred links: 1 amine or outer side, 2 acyl side, 3 side chain; linkers in the order of their positions; H or OH if unused. Non-standard residues stand in square brackets, D forms with d. Residues, ends and D or L forms follow the SMILES beside them. Groups on a side chain read outwards from the residue. *: point of attachment. X1 = CCCCCCCCCCCCCCCC(=O)N[C@@H](CCC(=O)N[C@@H](CCC(=O)N[C@@H](CCC(=O)NCCCOCCOCCOCCCNC(=O)CCC(=O)NCCCOCCOCCOCCCNC(=O)CCC(=O)NCCCOCCOCCOCCCN*)C(=O)O)C(=O)O)C(=O)O; Suc = O=C(CCC(=O)[*:2])[*:1]; αMeK = C[C@](N)(CCCCN)C(=O)O; hLys = NCCCCC[C@H](N)C(=O)O; Aib = CC(C)(N)C(=O)O
Biological target: T1, RXFP1 (Homo sapiens, UniProt Q9HBX9)
T1 construct: OVCAR5 cells expressing endogenous RXFP1; endogenous in cells; host or cells: OVCAR5
T1 sequence (Q9HBX9 1-757): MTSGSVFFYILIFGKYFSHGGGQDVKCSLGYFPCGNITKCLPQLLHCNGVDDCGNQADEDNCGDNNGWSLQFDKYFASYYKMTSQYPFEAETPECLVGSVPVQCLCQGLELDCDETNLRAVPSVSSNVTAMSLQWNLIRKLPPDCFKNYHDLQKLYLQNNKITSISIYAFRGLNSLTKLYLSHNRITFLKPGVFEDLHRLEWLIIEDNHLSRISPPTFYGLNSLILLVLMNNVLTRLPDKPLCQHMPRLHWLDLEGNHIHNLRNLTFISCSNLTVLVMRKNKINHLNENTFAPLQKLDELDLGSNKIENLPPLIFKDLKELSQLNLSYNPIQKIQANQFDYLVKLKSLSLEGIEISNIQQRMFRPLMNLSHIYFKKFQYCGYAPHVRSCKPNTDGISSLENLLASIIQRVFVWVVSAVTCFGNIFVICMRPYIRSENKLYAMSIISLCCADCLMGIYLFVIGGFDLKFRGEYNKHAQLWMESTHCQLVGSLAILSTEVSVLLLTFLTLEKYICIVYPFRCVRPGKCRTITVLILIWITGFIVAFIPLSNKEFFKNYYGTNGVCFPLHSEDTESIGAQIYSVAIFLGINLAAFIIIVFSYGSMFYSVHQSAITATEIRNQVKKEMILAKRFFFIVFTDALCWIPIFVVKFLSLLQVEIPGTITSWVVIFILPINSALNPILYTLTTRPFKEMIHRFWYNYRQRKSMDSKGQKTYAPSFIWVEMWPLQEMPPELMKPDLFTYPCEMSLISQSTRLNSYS
Assay: OVCAR5 cAMP assay (HTRF)
Format: cell-based
Settings: for EC50: OVCAR 5 cells expressing endogenous RXFP1, cAMP readout; for Emax: OVCAR 5 cells, maximal cAMP relative to H2-relaxin
Procedure, shortened: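 Peptide agonism measured as intracellular cAMP (HTRF) after 30 min at 37° C in serum-free medium, following 40 min 1 mM IBMX preincubation of OVCAR5 cells. Nonlinear regression gave EC50; Emax % = 100 × compound maximal cAMP / H2-relaxin maximal cAMP.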

`CCCCCCCCCCCCCCCC(=O)N[C@@H](CCC(=O)N[C@@H](CCC(=O)N[C@@H](CCC(=O)NCCCOCCOCCOCCCNC(=O)CCC(=O)NCCCOCCOCCOCCCNC(=O)CCC(=O)NCCCOCCOCCOCCCNC(=O)CCC(=O)NCCCC[C@H](NC(=O)CNC(=O)[C@H](CCC(=O)O)NC(=O)C(C)(C)NC(=O)C(C)(C)NC(=O)[C@@H](NC(=O)[C@H](CCCCNC(C)=O)NC(=O)[C@H](C)NC(=O)[C@H](CCCNC(=N)N)NC(=O)[C@@H](NC(=O)[C@H](CCCCN)NC(=O)[C@H](CCC(=O)O)NC(=O)[C@H](CCCNC(=N)N)NC(=O)CNC(=O)[C@H](CCC(=O)O)NC(=O)[C@H](CC(C)C)NC(C)=O)C(C)C)[C@@H](C)CC)C(=O)N[C@@H](CO)C(=O)N[C@H](C(=O)N[C@@H](Cc1c[nH]c2ccccc12)C(=O)N[C@@H](CO)C(=O)N[C@@](C)(CCCCN)C(=O)N[C@@H](CCCNC(=N)N)C(=O)N[C@@H](C)C(=O)N[C@@H](CCCCNC(C)=O)C(N)=O)[C@@H](C)O)C(=O)O)C(=O)O)C(=O)O` [compound 11] (Ac-LEGREKVRAK(Ac)I[Aib][Aib]EGK([Suc-X1])STWS[αMeK]RAK(Ac)-NH2) showed an EC50 of 0.83 nM and an Emax of 93%.

In the case of `CCCCCCCCCCCCCCCC(=O)N[C@@H](CCC(=O)N[C@@H](CCC(=O)N[C@@H](CCC(=O)NCCCOCCOCCOCCCNC(=O)CCC(=O)NCCCOCCOCCOCCCNC(=O)CCC(=O)NCCCOCCOCCOCCCNC(=O)CCC(=O)NCCCC[C@H](NC(=O)CNC(=O)[C@H](CCC(=O)O)NC(=O)C(C)(C)NC(=O)C(C)(C)NC(=O)[C@@H](NC(=O)[C@H](CCCCNC(C)=O)NC(=O)[C@H](C)NC(=O)[C@H](CCCNC(=N)N)NC(=O)[C@@H](NC(=O)[C@H](CCCCN)NC(=O)[C@H](CCC(=O)O)NC(=O)[C@H](CCCNC(=N)N)NC(=O)CNC(=O)[C@H](CCC(=O)O)NC(=O)[C@H](CC(C)C)NC(C)=O)C(C)C)[C@@H](C)CC)C(=O)N[C@@H](CO)C(=O)N[C@H](C(=O)N[C@@H](Cc1ccccc1)C(=O)N[C@@H](CO)C(=O)N[C@@H](CCCCCN)C(=O)N[C@@H](CCCNC(=N)N)C(=O)N[C@@H](C)C(=O)N[C@@H](CCCCNC(C)=O)C(N)=O)[C@@H](C)O)C(=O)O)C(=O)O)C(=O)O` [compound 88] (Ac-LEGREKVRAK(Ac)I[Aib][Aib]EGK([Suc-X1])STFS[hLys]RAK(Ac)-NH2), the EC50 was 0.17 nM and the Emax was 96%.

`CCCCCCCCCCCCCCCC(=O)N[C@@H](CCC(=O)N[C@@H](CCC(=O)N[C@@H](CCC(=O)NCCCOCCOCCOCCCNC(=O)CCC(=O)NCCCOCCOCCOCCCNC(=O)CCC(=O)NCCCOCCOCCOCCCNC(=O)CCC(=O)NCCCC[C@H](NC(=O)CNC(=O)[C@H](CCC(=O)O)NC(=O)C(C)(C)NC(=O)C(C)(C)NC(=O)[C@@H](NC(=O)[C@H](CCCCNC(C)=O)NC(=O)[C@H](C)NC(=O)[C@H](CCCNC(=N)N)NC(=O)[C@@H](NC(=O)[C@H](CCCCN)NC(=O)[C@H](CCC(=O)O)NC(=O)[C@H](CCCNC(=N)N)NC(=O)CNC(=O)[C@H](CCC(=O)O)NC(=O)[C@H](CC(C)C)NC(C)=O)C(C)C)[C@@H](C)CC)C(=O)N[C@@H](CO)C(=O)N[C@H](C(=O)N[C@@H](Cc1c[nH]c2ccccc12)C(=O)N[C@@H](CO)C(=O)NC(C)(C)C(=O)N[C@@H](CCCNC(=N)N)C(=O)N[C@@H](CCCCNC(C)=O)C(=O)N[C@@H](CCCNC(=N)N)C(N)=O)[C@@H](C)O)C(=O)O)C(=O)O)C(=O)O` [compound 69] (Ac-LEGREKVRAK(Ac)I[Aib][Aib]EGK([Suc-X1])STWS[Aib]RK(Ac)R-NH2) was tested, and the EC50 was 0.78 nM and the Emax was 97%.

In the case of `CCCCCCCCCCCCCCCC(=O)N[C@@H](CCC(=O)N[C@@H](CCC(=O)N[C@@H](CCC(=O)NCCCOCCOCCOCCCNC(=O)CCC(=O)NCCCOCCOCCOCCCNC(=O)CCC(=O)NCCCOCCOCCOCCCNC(=O)CCC(=O)NCCCC[C@H](NC(=O)CNC(=O)[C@H](CCC(=O)O)NC(=O)C(C)(C)NC(=O)C(C)(C)NC(=O)[C@@H](NC(=O)[C@H](CCCCNC(C)=O)NC(=O)[C@H](C)NC(=O)[C@H](CCCNC(=N)N)NC(=O)[C@@H](NC(=O)[C@H](CCCCN)NC(=O)[C@H](CCC(=O)O)NC(=O)[C@H](CCCNC(=N)N)NC(=O)CNC(=O)[C@H](CCC(=O)O)NC(=O)[C@H](CC(C)C)NC(C)=O)C(C)C)[C@@H](C)CC)C(=O)N[C@@H](CO)C(=O)N[C@@H](CCCCN)C(=O)N[C@@H](Cc1ccccc1)C(=O)N[C@@H](CO)C(=O)NC(C)(C)C(=O)N[C@@H](CCCNC(=N)N)C(=O)N[C@@H](CCCCN)C(=O)N[C@@H](CCCCNC(C)=O)C(N)=O)C(=O)O)C(=O)O)C(=O)O` [compound 79] (Ac-LEGREKVRAK(Ac)I[Aib][Aib]EGK([Suc-X1])SKFS[Aib]RKK(Ac)-NH2), the EC50 was 0.45 nM and the Emax was 95%.

Reference: US11725036B2, “Modified lipidated relaxin B chain peptides and their therapeutic use” (Sanofi, priority 2018, dated 2023)
